Test results from patent EP0955294B1, “Imidazolyl-alkenoic acid” (SMITHKLINE BEECHAM CORPORATION, priority 1989, dated 1990).
Where two headings read alike, the source gives them in different places.

What was measured:
[1] = system: pressor response to exogenous angiotensin II; assay: inhibition of pressor response to angiotensin II in conscious rats; assay type: in vivo; details: Rattus norvegicus, dose producing 50% inhibition of the control response to angiotensin II, read-out: IC50 (the source's name)
Procedure: (§1) Angiotensin II antagonist activity of the compounds of Formula (I) is assessed by in vitro and in vivo methods. In vitro antagonist activity is determined by the ability of the compounds to compete with ^125I-angiotensin II for binding to vascular angiotensin It receptors and by their ability to antagonize the contractile response to angiotensin II in the isolated rabbit aorta. In vivo activity is evaluated by the efficacy of the compounds to inhibit the pressor response to exogenous angiotensin II in conscious rats and to lower blood pressure in a rat model of […] hypertension.
Rats are prepared with indwelling femoral arterial and venous catheters and a stomach tube (Gellai et al., Kidney Int. 15:419, 1979). Two to three days following surgery the rats are placed in a restrainer and blood pressure is continuously monitored from the arterial catheter with a pressure transducer and recorded on a polygraph. The change in mean arterial pressure in response to intravenous injections of […] angiotensin II is compared at various time points prior to and following the administration of the compounds intravenously or orally at doses of 0.1 to 300 mg/kg. The dose of compound needed to produce 50% inhibition of the control response to angiotensin II (IC50) is used to estimate the potency of the compounds.

[2] = system: conscious rats made renin-dependent hypertensive; assay: antihypertensive activity in renal artery ligated (renin-dependent hypertensive) rats; assay type: in vivo; details: dose needed to reduce mean arterial pressure by 30 mm Hg
Procedure: as §1
The antihypertensive activity of the compounds is measured by their ability to reduce mean arterial pressure in conscious rats made renin-dependent hypertensive by ligation of the left renal artery (Cangiano et al., J. Pharmacol. Exp. Ther. 208:310, 1979). Renal artery ligated rats are prepared with indwelling catheters as described above. Seven to eight days following renal artery ligation, the time at which plasma renin levels are highest, the conscious rats are placed in restrainers and mean arterial pressure is continuously recorded prior to and following the administration of the compounds intravenously or orally. The dose of compound needed to reduce mean arterial pressure by 30 mm Hg (IC50) is used as an estimate of potency.

IC50 ([2]; i.v.): 1.80 mg/kg
SMILES: CCCCc1ncc(/C=C(\Cc2cccs2)C(=O)O)n1Cc1ccccc1Cl [Example 1, (E)-3-[2-n-Butyl-1-{(2-chlorophenyl)methyl}-1H-imidazol-5-yl]-2-(2-thienyl)methyl-2-propenoic Acid]
ED50 ([1]; iv, i.v.): 3.6 mg/kg
ED50 ([1]; po, orally): 44 mg/kg
ED (30 mm Hg) ([2]; Rattus norvegicus, po, orally, read-out: IC50): 8 mg/kg
